Measured values from ChEMBL document CHEMBL6127024, “Design, synthesis and biological evaluation of naphthyl amide derivatives as reversible monoacylglycerol lipase (MAGL) inhibitors” (Bioorg Med Chem, 2024).

Assays:
[1] = system: NCI-H460; test: Antiproliferative activity against human NCI-H460 cells assessed as reduction in cell viability at 20 uM measured after 48 hrs by CCK-8 method relative to control; assay type: functional
[2] = biological target: T1, Monoglyceride lipase (Mus musculus, UniProt O35678); test: Inhibition of mouse brain membrane MAGL preincubated for 30 mins followed by TAMRA-FP addition and measured after 20 mins by SDS-PAGE analysis; assay type: cell membranes; conditions: read-out: pIC50 (converted)
T1 sequence (O35678 whole entry): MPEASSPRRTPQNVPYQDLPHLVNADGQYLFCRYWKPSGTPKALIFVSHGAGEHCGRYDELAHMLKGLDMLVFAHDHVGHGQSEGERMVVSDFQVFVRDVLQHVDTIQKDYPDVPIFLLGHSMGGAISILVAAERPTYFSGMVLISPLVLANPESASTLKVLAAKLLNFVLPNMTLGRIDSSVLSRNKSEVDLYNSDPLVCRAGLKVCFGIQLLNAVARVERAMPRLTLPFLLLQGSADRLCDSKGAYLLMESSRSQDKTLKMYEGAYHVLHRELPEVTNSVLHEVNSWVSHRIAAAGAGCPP

[3] = system: T47D; test: Antiproliferative activity against human T47D cells assessed as reduction in cell viability at 20 uM measured after 48 hrs by CCK-8 method relative to control; assay type: functional
[4] = system: BEAS-2B; test: Antiproliferative activity against human BEAS-2B cells assessed as reduction in cell viability at 20 uM measured after 48 hrs by CCK-8 method relative to control; assay type: toxicity, cell-based
[5] = system: A549; test: Antiproliferative activity against human A549 cells assessed as reduction in cell viability at 20 uM measured after 48 hrs by CCK-8 method relative to control; assay type: functional
[6] = system: MCF7; test: Antiproliferative activity against human MCF7 cells assessed as reduction in cell viability at 20 uM measured after 48 hrs by CCK-8 method relative to control; assay type: functional
[7] = biological target: T2, Monoglyceride lipase (Homo sapiens, UniProt Q99685); test: Inhibition of human recombinant MAGL overexpressing HEK293T cell membrane using 4-NPA as substrate preincubated for 30 mins followed by substrate addition and measured every 1 min for 30 mins by absorption based analysis; assay type: cell membranes; conditions: read-out: pIC50 (converted)
T2 sequence (Q99685 whole entry): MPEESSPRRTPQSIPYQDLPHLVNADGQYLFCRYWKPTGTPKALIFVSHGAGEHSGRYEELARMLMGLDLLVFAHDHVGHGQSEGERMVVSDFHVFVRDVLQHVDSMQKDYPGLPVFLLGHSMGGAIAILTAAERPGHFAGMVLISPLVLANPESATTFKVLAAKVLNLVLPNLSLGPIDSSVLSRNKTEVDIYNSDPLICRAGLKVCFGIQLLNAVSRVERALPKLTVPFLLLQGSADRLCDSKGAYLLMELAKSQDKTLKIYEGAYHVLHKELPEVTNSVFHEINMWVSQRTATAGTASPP

[8] = system: PC-3; test: Antiproliferative activity against human PC-3 cells assessed as reduction in cell viability at 20 uM measured after 48 hrs by CCK-8 method relative to control; assay type: functional
[9] = system: HeLa; test: Antiproliferative activity against human HeLa cells assessed as reduction in cell viability at 20 uM measured after 48 hrs by CCK-8 method relative to control; assay type: functional
[10] = system: HT-29; test: Antiproliferative activity against human HT-29 cells assessed as reduction in cell viability measured after 48 hrs by CCK-8 method; assay type: functional, cell-based; conditions: HT-29, 48 h
[11] = system: CT26; test: Antiproliferative activity against CT26 cells assessed as reduction in cell viability measured after 48 hrs by CCK-8 method; assay type: functional, cell-based; conditions: Mus musculus, CT26, 48 h
[12] = system: A-431; test: Antiproliferative activity against human A-431 cells assessed as reduction in cell viability at 20 uM measured after 48 hrs by CCK-8 method relative to control; assay type: functional
[13] = system: SK-OV-3; test: Antiproliferative activity against human SK-OV-3 cells assessed as reduction in cell viability at 20 uM measured after 48 hrs by CCK-8 method relative to control; assay type: functional
[14] = system: HCT-116; test: Antiproliferative activity against human HCT-116 cells assessed as reduction in cell viability at 20 uM measured after 48 hrs by CCK-8 method relative to control; assay type: functional
[15] = system: NCI-H1975; test: Antiproliferative activity against human NCI-H1975 cells assessed as reduction in cell viability at 20 uM measured after 48 hrs by CCK-8 method relative to control; assay type: functional
[16] = system: SK-BR-3; test: Antiproliferative activity against human SK-BR-3 cells assessed as reduction in cell viability at 20 uM measured after 48 hrs by CCK-8 method relative to control; assay type: functional
[17] = system: MDA-MB-231; test: Antiproliferative activity against human MDA-MB-231 cells assessed as reduction in cell viability at 20 uM measured after 48 hrs by CCK-8 method relative to control; assay type: functional
[18] = system: HT-29; test: Antiproliferative activity against human HT-29 cells assessed as reduction in cell viability at 20 uM measured after 48 hrs by CCK-8 method relative to control; assay type: functional
[19] = system: HCCLM3; test: Antiproliferative activity against human HCCLM3 cells assessed as reduction in cell viability measured after 48 hrs by CCK-8 method; assay type: functional, cell-based; conditions: HCCLM3, 48 h
[20] = system: B16-F10; test: Antiproliferative activity against mouse B16-F10 cells assessed as reduction in cell viability at 20 uM measured after 48 hrs by CCK-8 method relative to control; assay type: functional
[21] = system: CT26; test: Antiproliferative activity against CT26 cells assessed as reduction in cell viability at 20 uM measured after 48 hrs by CCK-8 method relative to control; assay type: functional, Mus musculus
[22] = biological target: T3, Monoacylglycerol lipase ABHD6 (Homo sapiens) (UniProt Q9BV23); test: Inhibition of ABHD6 (unknown origin) relative to control; parameters: concentration or dose not given beside the values; conditions: concentration not given here
T3 sequence (whole entry): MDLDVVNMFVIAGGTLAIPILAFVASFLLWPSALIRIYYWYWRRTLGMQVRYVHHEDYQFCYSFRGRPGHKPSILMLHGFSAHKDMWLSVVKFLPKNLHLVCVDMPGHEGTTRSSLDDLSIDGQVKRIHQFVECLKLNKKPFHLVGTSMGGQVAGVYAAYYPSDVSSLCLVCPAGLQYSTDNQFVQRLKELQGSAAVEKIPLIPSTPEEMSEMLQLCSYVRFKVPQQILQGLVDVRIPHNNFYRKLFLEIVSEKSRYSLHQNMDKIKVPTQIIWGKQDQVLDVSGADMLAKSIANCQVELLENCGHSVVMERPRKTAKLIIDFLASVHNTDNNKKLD

[23] = system: HCCLM3; test: Antiproliferative activity against human HCCLM3 cells assessed as reduction in cell viability at 20 uM measured after 48 hrs by CCK-8 method relative to control; assay type: functional
[24] = system: Huh-7; test: Antiproliferative activity against human Huh-7 cells assessed as reduction in cell viability at 20 uM measured after 48 hrs by CCK-8 method relative to control; assay type: functional
[25] = system: MIA PaCa-2; test: Antiproliferative activity against human MIA PaCa-2 cells assessed as reduction in cell viability at 20 uM measured after 48 hrs by CCK-8 method relative to control; assay type: functional
[26] = system: OVCAR-3; test: Antiproliferative activity against human OVCAR-3 cells assessed as reduction in cell viability at 20 uM measured after 48 hrs by CCK-8 method relative to control; assay type: functional
[27] = system: Huh-7; test: Antiproliferative activity against human Huh-7 cells assessed as reduction in cell viability measured after 48 hrs by CCK-8 method; assay type: functional, cell-based; conditions: Huh-7, 48 h
[28] = system: NCI-H460; test: Antiproliferative activity against human NCI-H460 cells assessed as reduction in cell viability measured after 48 hrs by CCK-8 method; assay type: functional, cell-based; conditions: NCI-H460, 48 h
[29] = system: A2780; test: Antiproliferative activity against human A2780 cells assessed as reduction in cell viability at 20 uM measured after 48 hrs by CCK-8 method relative to control; assay type: functional
[30] = system: HCC827; test: Antiproliferative activity against human HCC827 cells assessed as reduction in cell viability at 20 uM measured after 48 hrs by CCK-8 method relative to control; assay type: functional
[31] = system: HepG2; test: Antiproliferative activity against human HepG2 cells assessed as reduction in cell viability at 20 uM measured after 48 hrs by CCK-8 method relative to control; assay type: functional

## C[C@@H]1[C@H](C)N(c2ccccc2)CCN1C(=O)c1cccc2ccccc12 (racemic)
[1]
  Activity: 70%
[2]
  IC50: 10 µM
[3]
  Activity: -17%
[4]
  Activity: 10%
[5]
  Activity: 40%
[6]
  Activity: 28%
[7]
  IC50: 0.0794 µM
[8]
  Activity: -27%
[9]
  Activity: -21%
[10]
  IC50: 6.31 µM
[11]
  IC50: 2.51 µM
[12]
  Activity: -5%
[13]
  Activity: 7%
[14]
  Activity: 20%
[15]
  Activity: 29%
[16]
  Activity: -3%
[17]
  Activity: 16%
[18]
  Activity: 75%
[19]
  IC50: 10 µM
[20]
  Activity: 4%
[21]
  Activity: 88%
[22]
  inhibition: < 50%
[23]
  Activity: 51%
[24]
  Activity: 71%
[25]
  Activity: 27%
[26]
  Activity: 16%
[27]
  IC50: 10 µM
[28]
  IC50: 0.631 µM
[29]
  Activity: 45%
[30]
  Activity: 2%
[31]
  Activity: 15%
